Data published in patent US10364238B2, “N-((het) arylmethyl)-heteroaryl-carboxamides compounds as plasma kallikrein inhibitors” (KALVISTA PHARMACEUTICALS LIMITED, priority 2014, dated 2019).

Legend:
Format in all cases: biochemical
[1] = molecular target: Human plasma kallikrein (Homo sapiens (Human), UniProt P03952); test: Determination of the IC50 for plasma kallikrein; details: 25° C., fluorogenic substrate H-DPro-Phe-Arg-AFC; read-out: IC50 (human PKaI)
Description: Determination of the IC50 for Plasma Kallikrein
(§1) Human plasma kallikrein (Protogen) was incubated at 25° C. with the fluorogenic substrate H-DPro-Phe-Arg-AFC and various concentrations of the test compound. Residual enzyme activity (initial rate of reaction) was determined by measuring the change in […] at 410 nm and the IC50 value for the test compound was determined.

[2] = molecular target: Human KLK1 (Homo sapiens (Human), UniProt P06870); test: Determination of the IC50 for KLK1; details: 25° C., fluorogenic substrate H-DVal-Leu-Arg-AFC
Description: Determination of the IC50 for KLK1
as §1, with “KLK1 (Callbiochem)” for “plasma kallikrein (Protogen)”, “H-DVal-Leu-Arg-AFC” for “H-DPro-Phe-Arg-AFC”

[3] = molecular target: Human FXIa (Homo sapiens (Human), UniProt P03951); test: Determination of the % inhibition for FXIa; details: 40 μM test compound, 25° C., substrate Z-Gly-Pro-Arg-AFC
Description: Determination of the % Inhibition for FXIa
Human FXIa (Enzyme Research Laboratories) was incubated at 25° C. with the fluorogenic substrate Z-Gly-Pro-Arg-AFC and 40 μM of the test compound. Residual enzyme activity (initial rate of reaction) was determined by measuring the change in […].

Human KLK1, sequence (P06870 25-262): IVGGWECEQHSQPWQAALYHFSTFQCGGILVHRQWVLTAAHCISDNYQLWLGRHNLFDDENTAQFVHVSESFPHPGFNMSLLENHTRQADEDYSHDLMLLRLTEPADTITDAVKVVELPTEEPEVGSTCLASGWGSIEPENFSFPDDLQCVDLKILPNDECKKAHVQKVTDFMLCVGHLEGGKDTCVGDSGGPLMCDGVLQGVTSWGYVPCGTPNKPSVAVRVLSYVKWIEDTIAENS
Human plasma kallikrein, sequence (P03952 391-638): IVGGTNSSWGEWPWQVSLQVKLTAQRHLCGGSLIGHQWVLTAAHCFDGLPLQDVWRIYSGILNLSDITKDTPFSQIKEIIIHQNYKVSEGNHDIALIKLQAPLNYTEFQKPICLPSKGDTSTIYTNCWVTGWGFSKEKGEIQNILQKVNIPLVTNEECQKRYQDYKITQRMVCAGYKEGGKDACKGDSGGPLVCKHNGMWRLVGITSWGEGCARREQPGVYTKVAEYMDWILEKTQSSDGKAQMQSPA
Human plasma kallikrein, sequence (P03952 20-390 partner): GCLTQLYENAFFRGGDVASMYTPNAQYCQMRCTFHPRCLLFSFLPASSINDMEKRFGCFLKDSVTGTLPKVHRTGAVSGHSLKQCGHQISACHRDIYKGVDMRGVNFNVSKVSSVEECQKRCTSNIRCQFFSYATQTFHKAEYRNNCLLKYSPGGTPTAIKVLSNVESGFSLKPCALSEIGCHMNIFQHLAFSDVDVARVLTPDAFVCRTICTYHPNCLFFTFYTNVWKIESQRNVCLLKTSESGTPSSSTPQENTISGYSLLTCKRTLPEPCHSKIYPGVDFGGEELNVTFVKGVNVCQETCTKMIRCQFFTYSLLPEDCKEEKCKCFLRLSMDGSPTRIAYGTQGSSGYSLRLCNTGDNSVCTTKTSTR
Human FXIa, sequence (P03951 388-625): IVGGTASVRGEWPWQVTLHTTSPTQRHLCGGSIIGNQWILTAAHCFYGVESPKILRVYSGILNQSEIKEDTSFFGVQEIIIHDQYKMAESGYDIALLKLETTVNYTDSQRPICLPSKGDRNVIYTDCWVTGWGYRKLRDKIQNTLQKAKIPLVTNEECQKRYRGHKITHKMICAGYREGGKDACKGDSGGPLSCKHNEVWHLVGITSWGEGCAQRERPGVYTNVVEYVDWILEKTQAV
Human FXIa, sequence (P03951 19-387 partner): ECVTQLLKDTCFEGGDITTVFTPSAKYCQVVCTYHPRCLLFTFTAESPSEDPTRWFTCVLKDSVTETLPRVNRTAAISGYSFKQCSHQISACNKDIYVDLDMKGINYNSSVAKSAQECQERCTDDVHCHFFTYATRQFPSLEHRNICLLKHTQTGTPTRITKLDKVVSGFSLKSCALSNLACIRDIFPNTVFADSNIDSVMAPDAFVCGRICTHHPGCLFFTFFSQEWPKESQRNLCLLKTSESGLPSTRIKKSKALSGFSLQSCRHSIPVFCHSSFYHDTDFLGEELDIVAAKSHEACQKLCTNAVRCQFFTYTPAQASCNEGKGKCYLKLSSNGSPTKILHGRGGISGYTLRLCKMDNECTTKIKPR

IC50 [1] [µM] | IC50 [2] [µM] | inhibition at 40 µM [3] [%] | % Inhibition @ 40 μM (human FXIa) [3] [%] | Compound
0.572 | > 10 | 0 | – | COCc1nn(Cc2ccc(Cn3ccccc3=O)cc2)cc1C(=O)NCc1ccccc1F [Example 62, N-[(2-fluorophenyl)methyl]-3-(methoxymethyl)-1-({4-[(2-oxopyridin-1-yl)methyl]phenyl}methyl)pyrazole-4-carboxamide]
0.342 | > 10 | 0 | – | COCc1nn(Cc2ccc(Cn3ccccc3=O)cc2)cc1C(=O)NCc1ccccc1C(F)(F)F [Example 63, 3-(methoxymethyl)-1-({4-[(2-oxopyridin-1-yl)methyl]phenyl}methyl)-N-{[2-(trifluoromethyl)phenyl]methyl}pyrazole-4-carboxamide]
0.0433 | > 10 | 0 | – | COCc1nn(Cc2ccc(Cn3ccccc3=O)cc2)cc1C(=O)NCc1ccc(C)cc1F [Example 65, N-[(2-fluoro-4-methylphenyl)methyl]-3-(methoxymethyl)-1-({4-[(2-oxopyridin-1-yl)methyl]phenyl}methyl)pyrazole-4-carboxamide]
0.0811 | > 10 | 6 | – | COCc1nn(Cc2ccc(Cn3ccccc3=O)cc2)cc1C(=O)NCc1ccccc1C(F)F [Example 68, N-{[2-(difluoromethyl)phenyl]methyl}-3-(methoxymethyl)-1-({4-[(2-oxopyridin-1-yl)methyl]phenyl}methyl)pyrazole-4-carboxamide]
0.0168 | > 40 | 0 | – | COCc1nn(Cc2ccc(Cn3ccccc3=O)cc2)cc1C(=O)NCc1cccc(OC)c1C(F)F [Example 69, N-{[2-(difluoromethyl)-3-methoxyphenyl]methyl}-3-(methoxymethyl)-1-({4-[(2-oxopyridin-1-yl)methyl]phenyl}methyl)pyrazole-4-carboxamide]
0.12 | > 10 | 8 | – | COCc1nn(Cc2ccc(Cn3ccccc3=O)cc2)cc1C(=O)NCc1c(F)ccc(Cl)c1F [Example 73, N-[(3-chloro-2,6-difluorophenyl)methyl]-3-(methoxymethyl)-1-({4-[(2-oxopyridin-1-yl)methyl]phenyl}methyl)pyrazole-4-carboxamide]
– | – | 14 | – | COCc1nn(Cc2ccc(Cn3ccccc3=O)cc2)cc1C(=O)NCc1c(F)ccc(OC)c1C(F)F [Example 83, N-{[2-(difluoromethyl)-6-fluoro-3-methoxyphenyl]methyl}-3-(methoxymethyl)-1-({4-[(2-oxopyridin-1-yl)methyl]phenyl}methyl)pyrazole-4-carboxamide]
– | – | 4 | – | COCc1nn(Cc2ccc(Cn3ccccc3=O)cc2)cc1C(=O)NCc1c(Cl)ccc(OC)c1F [Example 99, N-[(6-chloro-2-fluoro-3-methoxyphenyl)methyl]-3-(methoxymethyl)-1-({4-[(2-oxopyridin-1-yl)methyl]phenyl}methyl)pyrazole-4-carboxamide]

More lines, now with the values behind:

Compound | IC50 [1] [µM] | IC50 [2] [µM] | inhibition at 40 µM [3] [%] | % Inhibition @ 40 μM (human FXIa) [3] [%]
COCc1nn(Cc2ccc(Cn3ccccc3=O)cc2)cc1C(=O)NCc1cc(OC)cc(OC)c1 [Example 1, N-(3,5-Dimethoxybenzyl)-3-(methoxymethyl)-1-(4-((2-oxopyridin-1(2H)-yl)methyl)benzyl)-1H-pyrazole-4-carboxamide] | 0.698 | > 10 | 0 | –
COCc1nn(Cc2cnc3cc(Cl)ccc3c2)cc1C(=O)NCc1cccc(OC)c1F [Example 3, 1-(7-Chloro-quinolin-3-ylmethyl)-3-methoxymethyl-1H-pyrazole-4-carboxylic acid 2-fluoro-3-methoxy-benzylamide] | 2.58 | > 10 | 3 | –
COCc1nn(Cc2ccc(Cn3ccccc3=O)cc2)cc1C(=O)NCc1cccnc1C(F)(F)F [Example 36, 3-(methoxymethyl)-1-({4-[(2-oxopyridin-1-yl)methyl]phenyl}methyl)-N-{[2-(trifluoromethyl)pyridin-3-yl]methyl}pyrazole-4-carboxamide] | 4.17 | > 10 | 0 | –
COCc1nn(Cc2ccc(Cn3ccccc3=O)cc2)cc1C(=O)NCc1cccc(OC)n1 [Example 40, 3-(methoxymethyl)-N-[(6-methoxypyridin-2-yl)methyl]-1-({4-[(2-oxopyridin-1-yl)methyl]phenyl}methyl)pyrazole-4-carboxamide] | 3.7 | > 10 | 1 | –
COCc1nn(Cc2ccc(Cn3ccccc3=O)cc2)cc1C(=O)NCc1nc(OC)ccc1F [Example 42, N-[(3-fluoro-6-methoxypyridin-2-yl)methyl]-3-(methoxymethyl)-1-({4-[(2-oxopyridin-1-yl)methyl]phenyl}methyl)pyrazole-4-carboxamide] | 0.831 | > 10 | 1 | –
NC(=O)c1ccccc1CNC(=O)c1cn(Cc2ccc(Cn3ccccc3=O)cc2)nc1C1CC1 [Example 48, N-[(2-carbamoylphenyl)methyl]-3-cyclopropyl-1-({4-[(2-oxopyridin-1-yl)methyl]phenyl}methyl)pyrazole-4-carboxamide] | 0.647 | > 10 | 2 | –
NC(=O)c1cccc(CNC(=O)c2cn(Cc3ccc(Cn4ccccc4=O)cc3)nc2C2CC2)c1 [Example 49, N-[(3-carbamoylphenyl)methyl]-3-cyclopropyl-1-({4-[(2-oxopyridin-1-yl)methyl]phenyl}methyl)pyrazole-4-carboxamide] | 5.45 | > 10 | – | 0
COc1cccc(CNC(=O)c2cn(Cc3ccc(Cn4ccccc4=O)cc3)nc2C2CC2)c1F [Example 52, 3-cyclopropyl-N-[(2-fluoro-3-methoxyphenyl)methyl]-1-({4-[(2-oxopyridin-1-yl)methyl]phenyl}methyl)pyrazole-4-carboxamide] | 0.0233 | > 40 | – | 1
COCc1nn(Cc2ccc(Cn3ccccc3=O)cc2)cc1C(=O)NCc1c(OC)ccc(OC)c1F [Example 54, N-[(2-fluoro-3,6-dimethoxyphenyl)methyl]-3-(methoxymethyl)-1-({4-[(2-oxopyridin-1-yl)methyl]phenyl}methyl)pyrazole-4-carboxamide] | 0.0021 | > 40 | 17 | –
Nc1nn(Cc2ccc(Cn3ccccc3=O)cc2)cc1C(=O)NCc1ccc(OC(F)(F)F)cc1 [Example 58, 3-amino-1-({4-[(2-oxopyridin-1-yl)methyl]phenyl}methyl)-N-{[4-(trifluoromethoxy)phenyl]methyl}pyrazole-4-carboxamide] | 5.78 | > 10 | – | 0
COc1cccc(CNC(=O)c2cn(Cc3ccc(Cn4ccccc4=O)cc3)nc2N(C)C)c1F [Example 59, 3-(dimethylamino)-N-[(2-fluoro-3-methoxyphenyl)methyl]-1-({4-[(2-oxopyridin-1-yl)methyl]phenyl}methyl)pyrazole-4-carboxamide] | 0.0734 | > 10 | 0 | –
COCc1nn(Cc2ccc(Cn3ccccc3=O)cc2)cc1C(=O)NCc1cc(OC)ccc1F [Example 64, N-[(2-fluoro-5-methoxyphenyl)methyl]-3-(methoxymethyl)-1-({4-[(2-oxopyridin-1-yl)methyl]phenyl}methyl)pyrazole-4-carboxamide] | 0.0352 | > 10 | 0 | –
COCc1nn(Cc2ccc(Cn3ccccc3=O)cc2)cc1C(=O)NCc1cc(Cl)cc(OC)c1 [Example 67, N-[(3-chloro-5-methoxyphenyl)methyl]-3-(methoxymethyl)-1-({4-[(2-oxopyridin-1-yl)methyl]phenyl}methyl)pyrazole-4-carboxamide] | 0.393 | > 10 | 0 | –
Nc1nn(Cc2ccc(Cn3ccccc3=O)cc2)cc1C(=O)NCc1c(F)cccc1C(F)(F)F [Example 70, 3-amino-N-{[2-fluoro-6-(trifluoromethyl)phenyl]methyl}-1-({4-[(2-oxopyridin-1-yl)methyl]phenyl}methyl)pyrazole-4-carboxamide] | 0.0267 | > 10 | 6 | –
COc1cccc(CNC(=O)c2cn(Cc3ccc(Cn4ccccc4=O)cc3)nc2NC(C)=O)c1F [Example 71, 3-acetamido-N-[(2-fluoro-3-methoxyphenyl)methyl]-1-({4-[(2-oxopyridin-1-yl)methyl]phenyl}methyl)pyrazole-4-carboxamide] | 0.3 | > 10 | 0 | –
COc1cccc(CNC(=O)c2cn(Cc3ccc(Cn4ccccc4=O)cc3)nc2N(C)C(C)=O)c1F [Example 72, N-[(2-fluoro-3-methoxyphenyl)methyl]-3-(N-methylacetamido)-1-({4-[(2-oxopyridin-1-yl)methyl]phenyl}methyl)pyrazole-4-carboxamide] | 6.61 | > 10 | 1 | –
COCc1nn(Cc2ccc(Cn3ccccc3=O)cc2)cc1C(=O)NCc1cccc(O)c1F [Example 129, N-[(2-fluoro-3-hydroxyphenyl)methyl]-3-(methoxymethyl)-1-({4-[(2-oxopyridin-1-yl)methyl]phenyl}methyl)pyrazole-4-carboxamide] | 0.437 | – | 0 | –
